Measurements: US20220193076A1, “METHODS OF TREATING BREAST CANCER WITH TUCATINIB” (Seagen Inc., priority 2019, published 2022)

How the values were obtained:
OAT2 = target: T1, OAT2 (Homo sapiens, UniProt Q9Y694); test: Inhibition of OAT2 mediated transport of creatinine in transfected MDCK-II cells (Example 3); type: in vitro ADME; conditions: at concentration of 10 μM
T1 construct: expressed in transfected cells; host or cells: MDCK-II
T1 sequence (Q9Y694 1-548): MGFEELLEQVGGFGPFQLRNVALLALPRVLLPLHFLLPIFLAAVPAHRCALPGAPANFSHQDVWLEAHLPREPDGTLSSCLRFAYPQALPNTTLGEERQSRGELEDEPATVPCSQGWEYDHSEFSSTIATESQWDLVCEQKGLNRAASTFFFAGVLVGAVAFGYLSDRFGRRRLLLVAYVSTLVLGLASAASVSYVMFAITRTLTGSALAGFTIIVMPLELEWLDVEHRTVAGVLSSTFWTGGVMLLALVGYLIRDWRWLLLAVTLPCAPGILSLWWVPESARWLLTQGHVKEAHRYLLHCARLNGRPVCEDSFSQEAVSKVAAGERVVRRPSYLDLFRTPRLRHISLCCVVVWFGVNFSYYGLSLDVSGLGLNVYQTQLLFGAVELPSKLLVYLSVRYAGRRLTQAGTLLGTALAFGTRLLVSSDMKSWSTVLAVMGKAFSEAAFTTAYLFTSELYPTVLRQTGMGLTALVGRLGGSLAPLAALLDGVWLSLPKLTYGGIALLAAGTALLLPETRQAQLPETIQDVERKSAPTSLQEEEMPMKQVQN
Method: (§1) Substrate dependent inhibition is common among transporters including MATE1 and MATE2-K. In this study, creatinine was used as the probe substrate to assess the inhibitory potency of Tucatinib and ONT-993. OAT2, OCT2, OCT3, MATE1, and MATE2-K are the renal transporters identified to transport creatinine. Tucatinib and its metabolite ONT-993 were tested as potential inhibitors of OAT2, OCT2, MATE1, and MATE2-K mediated transport using creatinine as a probe substrate.
(§2) For this study, MDCK-II were maintained in DMEM with low glucose and 10% FBS. Cells were seeded at 60K±10K cells/well on 96-well, transwell membrane plates approximately 24 hours before transfection. Transport assays were carried out approximately 48 hours after transfection. Cells were transfected and treated to express the transporter of interest or treated with a control vector. The transport of creatinine was determined by radiometric detection.
(§3) Net transporter mediated uptake of the substrate by each transporter was calculated as follows: Net Transporter Mediated Substrate Uptake (pmol/min/cm^2)=(Cellular accumulation in the presence of the transporter)−(Mean cellular accumulation in the absence of the transporter.
(§4) Percent inhibition was calculated as follows: Percent inhibition=100−(100*(transporter mediated uptake)with inhibition/(transporter mediated uptake)without inhibition) […]

MATE1 = target: T2, MATE1 (Homo sapiens, UniProt Q96FL8); test: Inhibition of MATE1 mediated transport of creatinine in transfected MDCK-II cells (Example 3); type: in vitro ADME; design: expressed in transfected cells; host or cells: MDCK-II; conditions: probe substrate creatinine
T2 sequence (Q96FL8 1-570): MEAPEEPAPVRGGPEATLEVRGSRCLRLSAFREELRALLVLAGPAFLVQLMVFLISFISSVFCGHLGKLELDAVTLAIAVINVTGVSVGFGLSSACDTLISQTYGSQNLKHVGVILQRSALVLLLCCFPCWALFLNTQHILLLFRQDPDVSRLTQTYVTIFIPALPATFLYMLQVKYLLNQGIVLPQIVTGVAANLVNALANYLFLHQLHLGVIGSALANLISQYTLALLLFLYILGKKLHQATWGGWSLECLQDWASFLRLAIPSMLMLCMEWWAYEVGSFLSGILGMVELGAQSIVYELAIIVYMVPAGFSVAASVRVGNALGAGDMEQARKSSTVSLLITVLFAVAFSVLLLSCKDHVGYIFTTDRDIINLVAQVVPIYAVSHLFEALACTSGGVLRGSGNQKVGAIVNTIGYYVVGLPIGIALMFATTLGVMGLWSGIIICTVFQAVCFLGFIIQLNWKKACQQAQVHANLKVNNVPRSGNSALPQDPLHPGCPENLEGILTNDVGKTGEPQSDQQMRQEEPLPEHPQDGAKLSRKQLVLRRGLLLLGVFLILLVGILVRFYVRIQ
Method: OAT2, OCT2, OCT3, MATE1, and MATE2-K are the renal transporters identified to transport creatinine.
as §2, §3
Percent inhibition was calculated as follows: Percent inhibition=100−(100*(transporter mediated uptake)with inhibition/(transporter mediated uptake)without inhibition)
The following equation was used to determine IC50 values of uptake assays: […]

OCT2 = target: T3, OCT2 (Homo sapiens, UniProt O15244); test: Inhibition of OCT2 mediated transport of creatinine in transfected MDCK-II cells (Example 3); type: in vitro ADME; conditions: probe substrate creatinine, 0.03 to 10 μM
T3 construct: expressed in transfected cells; host or cells: MDCK-II
T3 sequence (O15244 1-555): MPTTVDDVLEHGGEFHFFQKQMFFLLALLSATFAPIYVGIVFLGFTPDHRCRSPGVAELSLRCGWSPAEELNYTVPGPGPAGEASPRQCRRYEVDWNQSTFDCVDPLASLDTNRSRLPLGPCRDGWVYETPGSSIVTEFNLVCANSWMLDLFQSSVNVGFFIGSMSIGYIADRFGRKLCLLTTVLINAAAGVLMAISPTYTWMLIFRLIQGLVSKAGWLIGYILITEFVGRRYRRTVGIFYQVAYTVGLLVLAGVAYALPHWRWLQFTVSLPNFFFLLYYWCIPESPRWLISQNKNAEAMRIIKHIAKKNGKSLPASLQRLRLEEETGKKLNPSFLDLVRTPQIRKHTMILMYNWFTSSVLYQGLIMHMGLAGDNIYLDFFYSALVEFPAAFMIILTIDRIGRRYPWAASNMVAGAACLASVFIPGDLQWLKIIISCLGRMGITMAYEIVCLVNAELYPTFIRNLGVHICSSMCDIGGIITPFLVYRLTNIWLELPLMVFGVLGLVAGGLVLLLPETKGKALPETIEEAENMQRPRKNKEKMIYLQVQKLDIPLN
Method: as §1, §2, §3, §4

[1] = Example 2 Part E: single- and multiple-dose PK of tucatinib and ONT-993; type: in vivo, human; conditions: tucatinib 300 mg BID, Day 14 vs Day 8

For `Cc1cc(Nc2ncnc3ccc(NC4=NC(C)(CO)CO4)cc23)ccc1Oc1ccn2ncnc2c1` (stereo not shown) [ONT-993], the “Maximum inhibition of OAT2 mediated transport of creatinine” value (OAT2) was 44.9%, the IC50 (MATE1) was 86.3 ± 12.6 nM and the IC50 (OCT2) was 544 ± 278 nM. For the same molecule, the “Rac (accumulation ratio) after multiple dosing” value [1] was 2.01.
